Data reported in patent US10005809B2, “Bio-active antioxidants from plant foods for nutraceutical product development” (priority 2013, dated 2018).
Where “and” joins values, the source holds several entries; their conditions need not be identical. Identical values can stand only once. Counter-ions that a name gives are not always drawn.

Key:
[1] = Trolox Equivalents Antioxidant Capacity (TEAC) assay; assay type: biochemical; conditions: for antioxidant activity (in words): TEAC measurements; for TEAC (Trolox equivalent antioxidant capacity) ± SEM: compounds 10-1000 μM, ABTS 0.5 mM, 734 nm, 6 min, ratio of slopes, no unit, n = 3
Protocol: Trolox Equivalents Antioxidant Capacity (TEAC) Assay of Compounds (1-11)
Pure compounds and standards (conc. Range 10-1000 μM) were reacted with the fixed concentration of ABTS (0.5 mM) according to the reported method. The decrease in absorbance at 734 nm was recorded 6 min after the addition of pro-formed ABTS radical solution. Standards including Trolox, quercetin, kaempferol and ascorbic acid were used for the comparison of structure-activity relationship with the isolated compounds. The calculation of TEAC values was obtained by plotting the graphs between various concentrations of compounds and percent radical scavenging activity. Slope (m) was then calculated by using the linear regression (y=mx+c) of the plotted curve. Ratio of the value of slope of Trolox with that of isolated compounds was calculated to get TEAC value as follows; TEACCompound=Slope of Trolox/Slope of compound (3)
The TEAC assay was used to assess the power of reduction of total amount of ABTS^•+ radicals formed during the reaction by bioactive metaboilite. The ABTS is intensely colored and when it reacts with antioxidant the color disappeared. […] In present procedure, the ratio of the slope of concentrations of standard and test compound is taken, therefore TEAC is considered as relative value with no unit. Trolox used as standard antioxidant with TEAC value as 1.

[2] = Liver function test (LFT) and lipid profile of serum after oral extract feeding; assay type: in vivo, Male Wistar rats; conditions: rat serum after two weeks oral feeding; mean ± SEM, n = 6
From the text: Rats were housed in polycarbonate cages, containing hardwood chip bedding. A standard pallet diet and water was made available ad-libitum. A 12 hr light/dark cycle was maintained throughout tbe study. After 14 days of acclimatization, the rats were randomized, and divided to 6 animals in each group: control, test, and positive control (Trolox). Oral doses of extracts were given after every alternate day and their physical status and weight changes were monitored daily. Control group has received an equal volume of normal saline for the same period of time. The experiment was terminated after two weeks of feeding. Under mild anesthetic conditions, blood was drawn via heart puncture. Blood was collected in clot activator plastic tubes, and allowed to clot for 30-40 minutes. Serum was separated by centrifugation and then stored at -20° C. till antioxidant status and other biochemical analysis were carried out. LPT and Lipid Profile The diagnostic facilities of […]), University of Karachi, were used for the biochemical analysis of serum samples. Lipid profile includes cholesterol, triglycerides, high density lipoproteins (HDL), low density lipoproteins (LDL), and LPT including bilirubin (total and direct), enzymes such as alanine aminotransferase (ALT), alkaline phosphatase (ALP), and gamma […] (GGT), were measured. These assays were performed by fully automated chemistry analyzer (Hitachi 902, Roche Diagnostics, Japan) with standardized kits, calibrators, and controls. Total lipid was estimated manually by calorimetric method of phosphovanilline on a photometer (Clinicon 4010, Boehringer […], Germany).

## 1,5-dimethyl citrate [compound 10]
[1]
  antioxidant activity (in words): moderate to low antioxidant activity
  TEAC (Trolox equivalent antioxidant capacity) ± SEM: 0.67±0.31

## O=C1O[C@H]([C@@H](O)CO)C(O)=C1O [Ascorbic acid, reference compound]
[1]
  TEAC (Trolox equivalent antioxidant capacity) ± SEM: 1.14 ± 0.29

## O=c1c(O)c(-c2ccc(O)cc2)oc2cc(O)cc(O)c12 [Kaempferol, reference compound]
[1]
  TEAC (Trolox equivalent antioxidant capacity) ± SEM: 0.97 ± 0.27
[1]; listed as keampferol
  TEAC (Trolox equivalent antioxidant capacity) ± SEM: 0.97

## O=c1c(O)c(-c2ccc(O)c(O)c2)oc2cc(O)cc(O)c12 [Quercetin, reference compound]
[1]
  TEAC (Trolox equivalent antioxidant capacity) ± SEM: 1.07 ± 0.23
[1]; listed as quercetin
  TEAC (Trolox equivalent antioxidant capacity) ± SEM: 1.07±0.23

## Cc1c(C)c2c(c(C)c1O)CCC(C)(C(=O)O)O2 (centres unmarked) [Trolox, 6-hydroxy-2,5,7,8-tetramethylchroman-2-carboxylic acid]
[1]
  TEAC (Trolox equivalent antioxidant capacity) ± SEM: 1
[2]
  ALP: 212.54 ± 24.51 U/L
  ALT/SGPT: 45.5 ± 5.49 U/L
  Chol: 56.75 ± 2.07 mg/dL
  Direct Bilirubin: 0.085 ± 0.007 mg/dL
  GGT: 4.25 ± 0.74 U/L
  HDL-c: 55 ± 1.97 mg/dL
  Indirect Bilirubin: 0.43 ± 0.03 mg/dL
  LDL-c: 14.25 ± 0.96 mg/dL
  TAG: 40 ± 1.54 mg/dL
  Total Bilirubin: 0.51 ± 0.02 mg/dL
  Total Lipid: 260 ± 5 mg/dL
  VLDL: 8.5 ± 0.25 mg/dL

## COc1cc(-c2oc3cc(O)cc(O[C@@H]4O[C@H](COC(=O)CC(C)(O)CC(=O)O)[C@@H](O)[C@H](O)[C@H]4O)c3c(=O)c2O)ccc1O (stereo partly drawn) [compound 1, isorhamnetol 5-O-[6″-(3-hydroxy-3-methyl glutarate)] β-D-glucoside]
[1]
  TEAC (Trolox equivalent antioxidant capacity) ± SEM: 0.88 ± 0.21

## C[C@H]1O[C@@H](Oc2c(-c3ccc(O)cc3)oc3cc(O)cc(O)c3c2=O)[C@@H](O)[C@@H](O)[C@@H]1O [compound 3, kaempferol 3-O-β-D-rhamnoside]
[1]
  TEAC (Trolox equivalent antioxidant capacity) ± SEM: 0.91 ± 0.21

## O=c1c(O[C@@H]2O[C@H](CO)[C@@H](O)[C@H](O)[C@H]2O)c(-c2ccc(O)c(O)c2)oc2cc(O)cc(O)c12 [compound 4, quercetin 3-O-β-D-glucoside]
[1]
  TEAC (Trolox equivalent antioxidant capacity) ± SEM: 0.82±0.23 and 0.82 ± 0.32

## C[C@H]1O[C@@H](Oc2c(-c3ccc(O)c(O)c3)oc3cc(O)cc(O)c3c2=O)[C@@H](O)[C@@H](O)[C@@H]1O [compound 5, quercetin 3-O-β-D-rhamnoside]
[1]
  TEAC (Trolox equivalent antioxidant capacity) ± SEM: 0.82 ± 0.23

## O=C(/C=C/c1ccc(O)cc1)O[C@H]1C(Oc2c(-c3ccc(O)c(O)c3)oc3cc(O)cc(O)c3c2=O)O[C@H](CO)[C@@H](O)[C@@H]1O (some centres unmarked) [compound 6, quercetin 3-O-(2-p-coumaroylglucoside)]
[1]
  TEAC (Trolox equivalent antioxidant capacity) ± SEM: 0.36 ± 0.19

## O=Cc1ccc(CO)o1 [compound 8, 5-hydroxymethylfurfural]
[1]
  TEAC (Trolox equivalent antioxidant capacity) ± SEM: 1.05±0.24

## O=C(O)c1ccc(O)c(O)c1 [compound 9, 3,4-dihydroxybenzoic acid]
[1]
  TEAC (Trolox equivalent antioxidant capacity) ± SEM: 0.95 ± 0.01

## COC(=O)CC(O)(CC(=O)OC)C(=O)OC [compound 11, trimethyl citrate]
[1]
  antioxidant activity (in words): moderate to low antioxidant activity
  TEAC (Trolox equivalent antioxidant capacity) ± SEM: 0.58±0.12

## kaempferol 3-O-β-D-glucoside [compound 2]
[1]
  TEAC (Trolox equivalent antioxidant capacity) ± SEM: 0.80 ± 0.31

## myricetin 3-O-β-D-xyloside [compound 7]
[1]
  TEAC (Trolox equivalent antioxidant capacity) ± SEM: 0.92 ± 0.35
[1]; listed as myricetin
  TEAC (Trolox equivalent antioxidant capacity) ± SEM: 0.92±0.35
